{
  "source": "patent US9688637B2",
  "about": "“3-amidobenzamides and uses thereof for increasing cellular levels of A3G and other A3 family members” (Northwestern University, priority 2014, dated 2017)",
  "key": {"A3G": {"target": "A3G (Homo sapiens, UniProt Q9HC16)", "sequence (Q9HC16 whole entry)": "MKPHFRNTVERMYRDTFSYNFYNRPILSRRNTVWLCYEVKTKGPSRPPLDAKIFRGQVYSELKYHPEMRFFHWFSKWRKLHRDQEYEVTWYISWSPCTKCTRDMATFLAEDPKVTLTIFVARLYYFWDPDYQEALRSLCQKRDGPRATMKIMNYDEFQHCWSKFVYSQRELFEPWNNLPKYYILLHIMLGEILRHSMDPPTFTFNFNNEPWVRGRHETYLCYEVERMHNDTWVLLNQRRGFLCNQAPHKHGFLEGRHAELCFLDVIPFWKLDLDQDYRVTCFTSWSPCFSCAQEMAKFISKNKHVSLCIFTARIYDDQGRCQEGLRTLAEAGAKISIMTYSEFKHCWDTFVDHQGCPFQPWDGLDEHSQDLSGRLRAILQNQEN", "settings": "described by others (ref. 39); cited from earlier work"}, "293T cells": {"tested_on": "293T cells", "test": "Cellular cytotoxicity by counting cells after 48 hrs with compound vs DMSO", "type": "cell-based", "method": "To screen compounds that can boost A3G levels, 293T cells (25,000 cells per well in 96-well plate) stably expressing A3G-Luc protein or A3G-Luc/Vif proteins were plated. After 24 hrs post plating culture medium was replaced with 100 μl of new medium containing either DMSO as a control or various compounds (10 μM concentration). After 48 hrs of incubation with compounds culture medium was removed from each well and replaced with 100 μl of Britelite Plus luciferase assay substrate (PerkinElmer). Following 5 min. of incubation at room temperature, 75 μl of each cell lysate was transferred to a 96-well OptiPlate 96 (PerkinElmer) and luminescence was measured in a VICTOR X2 Multilabel Reader (PerkinElmer). Relative activity of compounds for their boosting capability A3G-Luc activity was calculated by plotting DMSO-treated A3G-Luc or A3G-Luc/Vif cells as 100%. Cellular cytotoxicity was measured by counting number of cells after 48 hrs of incubation with compounds compared to DMSO treated cells."}},
  "data": [
    {"smiles": "COc1ccc(C(=O)Nc2cc(OC)c(OC)c(OC)c2)cc1NC(=O)C(C)Br", "note": "(centres unmarked) [IMB-26, reference compound]", "values": [
      {"measurement": "binding to A3G and degradation of A3G by Vif", "setting": "A3G", "result": "directly bind to A3G and prevent its degradation by Vif"},
      {"measurement": "toxicity to 293T cells", "setting": "293T cells", "result": "toxic"}
    ]}
  ]
}
